Results reported in ChEMBL document CHEMBL1201862, “PubChem BioAssay data set” (2004).
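Protocol summary: plate cells (96-well), add compound at 5 concentrations, incubate 48 h, interpolate endpoints linearly. GI50 = concentration required for 50% inhibition of growth.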 The source made the active and inactive calls. Rule as the data show it: active = GI50 up to about 1.1 µM and inactive = higher.

Assays:
Assay in all cases: growth of human tumour cells (NCI), 48 h
[1] = test system: 786-0
[2] = test system: A498
[3] = test system: A549
[4] = test system: ACHN
[5] = test system: COLO 205
[6] = test system: HT-29
[7] = test system: Hs-578T
[8] = test system: KM12
[9] = test system: MCF7
[10] = test system: MDA-N
[11] = test system: MOLT-4
[12] = test system: NCI-H23
[13] = test system: NCI-H460
[14] = test system: NCI/ADR-RES
[15] = test system: SNB-19
[16] = test system: SNB-75
[17] = test system: SW-620
[18] = test system: T47D
[19] = test system: UACC-257
[20] = test system: UACC-62

SMILES	GI50 [1]	GI50 [2]	GI50 [3]	GI50 [4]	GI50 [5]	GI50 [6]	GI50 [7]	GI50 [8]	GI50 [9]	GI50 [10]	GI50 [11]	GI50 [12]	GI50 [13]	GI50 [14]	GI50 [15]	GI50 [16]	GI50 [17]	GI50 [18]	GI50 [19]	GI50 [20]
Oc1c(C(O)(c2ccccc2)c2ccc3ccccc3c2O)ccc2ccccc12	20 µM (inactive)	16.1 µM (inactive)	12.1 µM (inactive)	10.5 µM (inactive)	17.2 µM (inactive)	17 µM (inactive)	7.03 µM (inactive)	9.38 µM (inactive)	2.93 µM (inactive)	12.2 µM (inactive)	1.88 µM (inactive)	5.12 µM (inactive)	8.91 µM (inactive)	13.2 µM (inactive)	14.2 µM (inactive)	14.7 µM (inactive)	11.2 µM (inactive)	2.96 µM (inactive)	10.2 µM (inactive)	10.6 µM (inactive)
Oc1ccc(Nc2nc(Cl)c3nc[nH]c3n2)cc1	> 100 µM (inactive)	> 100 µM (inactive)	> 100 µM (inactive)	93.1 µM (inactive)	> 100 µM (inactive)	> 100 µM (inactive)	> 100 µM (inactive)	> 100 µM (inactive)	> 100 µM (inactive)	> 100 µM (inactive)	> 100 µM (inactive)	> 100 µM (inactive)	> 100 µM (inactive)	> 100 µM (inactive)	> 100 µM (inactive)	> 100 µM (inactive)	> 100 µM (inactive)	61.9 µM (inactive)	> 100 µM (inactive)	> 100 µM (inactive)
CC(C)OC(=O)c1ccc(NCC2=CC(=O)C=CC2=O)cc1	13 µM (inactive)	27.2 µM (inactive)	44.3 µM (inactive)	12 µM (inactive)	3.8 µM (inactive)	16.4 µM (inactive)	18.3 µM (inactive)	16.6 µM (inactive)	12.4 µM (inactive)	15.1 µM (inactive)	2.39 µM (inactive)	13.6 µM (inactive)	36.3 µM (inactive)	13.5 µM (inactive)	29.4 µM (inactive)	18.5 µM (inactive)	11.7 µM (inactive)	2.25 µM (inactive)	14.1 µM (inactive)	15.3 µM (inactive)
O=C(O)CCc1nc2c(n1-c1ccccc1)C(=O)c1ccccc1C2=O	> 100 µM (inactive)	> 100 µM (inactive)	> 100 µM (inactive)	> 100 µM (inactive)	> 100 µM (inactive)	> 100 µM (inactive)	> 100 µM (inactive)	> 100 µM (inactive)	97.7 µM (inactive)	> 100 µM (inactive)	> 100 µM (inactive)	> 100 µM (inactive)	> 100 µM (inactive)	> 100 µM (inactive)	> 100 µM (inactive)	> 100 µM (inactive)	> 100 µM (inactive)	64.7 µM (inactive)	> 100 µM (inactive)	> 100 µM (inactive)
COc1cc(/C=C2\C[C@H]3[C@@H]4CC=C5C=C(N6CCCC6)CC[C@]5(C)[C@H]4CC[C@]3(C)C2=O)cc(OC)c1OC	2.84 µM (inactive)	8.79 µM (inactive)	5.24 µM (inactive)	2.32 µM (inactive)	2.77 µM (inactive)	2.95 µM (inactive)	2.4 µM (inactive)	1.91 µM (inactive)	3.22 µM (inactive)	2.32 µM (inactive)	2.05 µM (inactive)	2.52 µM (inactive)		2.65 µM (inactive)	3.73 µM (inactive)	4.51 µM (inactive)	3.91 µM (inactive)	1.94 µM (inactive)	3.1 µM (inactive)	2.13 µM (inactive)
O=C1CC(=O)NC(NN2C(=O)CSC2c2ccc(Cl)cc2)=N1 (stereo unspecified)	37.2 µM (inactive)	> 100 µM (inactive)	> 100 µM (inactive)	> 100 µM (inactive)	> 100 µM (inactive)	34.1 µM (inactive)	25.6 µM (inactive)	32.8 µM (inactive)	61.1 µM (inactive)	54.8 µM (inactive)	28 µM (inactive)	25.5 µM (inactive)	51.3 µM (inactive)	> 100 µM (inactive)		> 100 µM (inactive)	> 100 µM (inactive)	> 100 µM (inactive)	> 100 µM (inactive)	21.8 µM (inactive)
Cn1c2n/c(=N\c3ccc(Cl)cc3)[n+]3ccc4ccccc4c3c-2c([O-])n1-c1ccccc1	> 100 µM (inactive)	> 100 µM (inactive)		> 100 µM (inactive)	> 100 µM (inactive)	> 100 µM (inactive)	> 100 µM (inactive)	42.9 µM (inactive)	> 100 µM (inactive)	> 100 µM (inactive)	> 100 µM (inactive)	> 100 µM (inactive)	> 100 µM (inactive)	> 100 µM (inactive)	> 100 µM (inactive)	> 100 µM (inactive)	> 100 µM (inactive)	> 100 µM (inactive)	> 100 µM (inactive)	> 100 µM (inactive)
CCCC(=O)N(C(=O)CCC)C1=C(Cl)C(=O)c2ccccc2C1=O	9.98 µM (inactive)	18.3 µM (inactive)	6.73 µM (inactive)	1.28 µM (inactive)	2.91 µM (inactive)	8.51 µM (inactive)	8.04 µM (inactive)	3.49 µM (inactive)	1.84 µM (inactive)	7.45 µM (inactive)	3.25 µM (inactive)	2.65 µM (inactive)	5.22 µM (inactive)	3.86 µM (inactive)	6.73 µM (inactive)	3.18 µM (inactive)	2.87 µM (inactive)	2.33 µM (inactive)	3.42 µM (inactive)	2.49 µM (inactive)
Cn1c2c(c3ccccc31)CC(=S)N1CCCC(CC2O)C1 (stereo unspecified)	> 100 µM (inactive)	> 100 µM (inactive)	> 100 µM (inactive)	> 100 µM (inactive)	> 100 µM (inactive)	> 100 µM (inactive)	> 100 µM (inactive)	> 100 µM (inactive)	> 100 µM (inactive)	> 100 µM (inactive)		> 100 µM (inactive)	> 100 µM (inactive)	> 100 µM (inactive)	> 100 µM (inactive)	> 100 µM (inactive)	> 100 µM (inactive)	> 100 µM (inactive)	> 100 µM (inactive)	91.2 µM (inactive)
O=c1[nH]/c(=C/c2ccc(OCc3ccccc3)cn2)c(=O)[nH]/c1=C/c1ccc(F)cc1	0.447 µM (active)	0.834 µM (active)	1.8 µM (inactive)	1.72 µM (inactive)	0.55 µM (active)	0.434 µM (active)	0.542 µM (active)	0.344 µM (active)	0.301 µM (active)	0.069 µM (active)	0.4 µM (active)	2.89 µM (inactive)	0.541 µM (active)	0.614 µM (active)	2.3 µM (inactive)	0.409 µM (active)	0.416 µM (active)	1.42 µM (inactive)	0.512 µM (active)	0.938 µM (active)
CN(C)C(=C1c2cc([N+](=O)[O-])ccc2-c2ccc([N+](=O)[O-])cc21)N(C)C	> 100 µM (inactive)	> 100 µM (inactive)	> 100 µM (inactive)	> 100 µM (inactive)	> 100 µM (inactive)	> 100 µM (inactive)	> 100 µM (inactive)	> 100 µM (inactive)	> 100 µM (inactive)	> 100 µM (inactive)	5.24 µM (inactive)	> 100 µM (inactive)		> 100 µM (inactive)	> 100 µM (inactive)	> 100 µM (inactive)	> 100 µM (inactive)	4.11 µM (inactive)	> 100 µM (inactive)	> 100 µM (inactive)
Cc1ncc([N+](=O)[O-])n1CCNC(=O)CCC(=O)NCCCn1ccnc1[N+](=O)[O-]	> 100 µM (inactive)	> 100 µM (inactive)	> 100 µM (inactive)	> 100 µM (inactive)	> 100 µM (inactive)	> 100 µM (inactive)	> 100 µM (inactive)	> 100 µM (inactive)	> 100 µM (inactive)	> 100 µM (inactive)	> 100 µM (inactive)	> 100 µM (inactive)	> 100 µM (inactive)	> 100 µM (inactive)		> 100 µM (inactive)	> 100 µM (inactive)	> 100 µM (inactive)	> 100 µM (inactive)	> 100 µM (inactive)
O=C(O)[C@H]1NC[C@@H]2ON=C(Br)[C@@H]21	> 100 µM (inactive)	> 100 µM (inactive)	> 100 µM (inactive)	> 100 µM (inactive)	> 100 µM (inactive)	> 100 µM (inactive)	> 100 µM (inactive)	> 100 µM (inactive)	> 100 µM (inactive)	> 100 µM (inactive)	> 100 µM (inactive)	> 100 µM (inactive)	> 100 µM (inactive)	> 100 µM (inactive)	> 100 µM (inactive)	> 100 µM (inactive)	> 100 µM (inactive)	> 100 µM (inactive)	> 100 µM (inactive)	> 100 µM (inactive)
Cc1ccc(NC(=O)S(N)(c2ccc(C)cc2)[N+](=O)[O-])cc1 (stereo unspecified)		> 100 µM (inactive)			> 100 µM (inactive)	> 100 µM (inactive)	> 100 µM (inactive)	> 100 µM (inactive)	> 100 µM (inactive)	> 100 µM (inactive)	84.7 µM (inactive)	> 100 µM (inactive)	> 100 µM (inactive)	> 100 µM (inactive)	> 100 µM (inactive)	> 100 µM (inactive)	> 100 µM (inactive)	38 µM (inactive)	> 100 µM (inactive)	> 100 µM (inactive)
